Measurements as given in BindingDB's records for patent US20250136608 (Cgenetech (Suzhou, China) Co., 2025).

Legend:
[1] = target: Tyrosine-protein kinase JAK2 (Homo sapiens, UniProt O60674); assay: JAK2 Kinase Inhibitory Activity Assay
[2] = target: T1, Tyrosine-protein kinase JAK3 (Homo sapiens, UniProt P52333); assay: JAK3 Kinase Inhibitory Activity Assay
T1 sequence (P52333 whole entry): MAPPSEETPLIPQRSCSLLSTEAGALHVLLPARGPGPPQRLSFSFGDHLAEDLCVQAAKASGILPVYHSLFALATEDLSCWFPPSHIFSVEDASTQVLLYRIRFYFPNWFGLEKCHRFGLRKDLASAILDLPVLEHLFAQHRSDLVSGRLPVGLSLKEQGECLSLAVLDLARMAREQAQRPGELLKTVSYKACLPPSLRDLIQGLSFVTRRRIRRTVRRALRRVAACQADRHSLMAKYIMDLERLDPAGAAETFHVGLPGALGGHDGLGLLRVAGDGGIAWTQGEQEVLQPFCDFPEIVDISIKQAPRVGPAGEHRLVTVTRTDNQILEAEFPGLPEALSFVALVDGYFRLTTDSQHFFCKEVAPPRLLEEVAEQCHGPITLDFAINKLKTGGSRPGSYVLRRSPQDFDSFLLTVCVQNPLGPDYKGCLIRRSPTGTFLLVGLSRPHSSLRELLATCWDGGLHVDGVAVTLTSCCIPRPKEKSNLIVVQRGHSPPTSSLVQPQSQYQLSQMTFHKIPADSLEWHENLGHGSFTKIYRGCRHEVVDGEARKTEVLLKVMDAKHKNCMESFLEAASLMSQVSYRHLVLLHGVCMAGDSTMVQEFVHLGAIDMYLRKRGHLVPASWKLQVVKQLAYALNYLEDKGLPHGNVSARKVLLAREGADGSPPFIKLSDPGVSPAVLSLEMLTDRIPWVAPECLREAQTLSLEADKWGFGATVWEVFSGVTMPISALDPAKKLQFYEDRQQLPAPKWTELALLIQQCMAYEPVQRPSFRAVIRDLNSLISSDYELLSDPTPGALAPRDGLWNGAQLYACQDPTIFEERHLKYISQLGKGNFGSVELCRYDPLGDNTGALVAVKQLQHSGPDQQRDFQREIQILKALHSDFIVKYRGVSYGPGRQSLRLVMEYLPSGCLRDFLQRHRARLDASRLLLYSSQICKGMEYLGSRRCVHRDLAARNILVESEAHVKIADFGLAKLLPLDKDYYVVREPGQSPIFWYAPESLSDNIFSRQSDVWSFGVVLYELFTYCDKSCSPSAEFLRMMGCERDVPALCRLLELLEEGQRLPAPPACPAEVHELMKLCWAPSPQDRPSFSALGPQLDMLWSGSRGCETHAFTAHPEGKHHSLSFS

Chain of Tyrosine-protein kinase JAK2 (O60674 whole entry): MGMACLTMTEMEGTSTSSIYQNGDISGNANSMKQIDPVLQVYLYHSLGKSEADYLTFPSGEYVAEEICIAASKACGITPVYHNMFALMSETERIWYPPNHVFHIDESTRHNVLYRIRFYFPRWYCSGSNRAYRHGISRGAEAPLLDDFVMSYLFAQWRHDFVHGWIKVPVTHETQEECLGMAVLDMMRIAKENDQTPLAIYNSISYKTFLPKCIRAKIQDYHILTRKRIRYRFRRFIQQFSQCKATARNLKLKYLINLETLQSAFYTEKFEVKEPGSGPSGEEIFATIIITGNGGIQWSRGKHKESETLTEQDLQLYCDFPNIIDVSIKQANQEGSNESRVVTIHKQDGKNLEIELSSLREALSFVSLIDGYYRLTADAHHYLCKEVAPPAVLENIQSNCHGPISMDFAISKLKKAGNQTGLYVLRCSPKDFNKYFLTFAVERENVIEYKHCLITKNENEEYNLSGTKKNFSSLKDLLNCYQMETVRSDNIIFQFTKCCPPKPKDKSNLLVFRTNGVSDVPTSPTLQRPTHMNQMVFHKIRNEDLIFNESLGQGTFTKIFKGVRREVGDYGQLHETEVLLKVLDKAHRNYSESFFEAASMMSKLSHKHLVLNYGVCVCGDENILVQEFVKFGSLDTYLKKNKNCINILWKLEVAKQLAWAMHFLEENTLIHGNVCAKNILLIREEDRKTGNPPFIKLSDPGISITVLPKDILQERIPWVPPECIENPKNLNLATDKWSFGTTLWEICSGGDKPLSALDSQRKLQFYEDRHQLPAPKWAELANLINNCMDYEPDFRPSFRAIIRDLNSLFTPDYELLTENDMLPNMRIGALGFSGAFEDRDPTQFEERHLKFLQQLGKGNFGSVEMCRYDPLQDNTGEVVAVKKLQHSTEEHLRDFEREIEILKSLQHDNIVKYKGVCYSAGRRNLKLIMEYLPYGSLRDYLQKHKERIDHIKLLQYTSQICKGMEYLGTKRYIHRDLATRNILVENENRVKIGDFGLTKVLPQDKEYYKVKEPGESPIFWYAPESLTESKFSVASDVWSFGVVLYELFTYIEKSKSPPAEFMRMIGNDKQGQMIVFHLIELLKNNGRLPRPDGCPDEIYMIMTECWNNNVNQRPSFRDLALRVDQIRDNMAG

N#CCC1(n2cc(-c3ncnc4[nH]ccc34)cn2)CCC(F)(F)CC1 [US20250136608, Compound 1]
IC50 [1]: 2.8 nM
IC50 [2]: 241 nM
